Structures are written as SMILES.

What all share (format): in vivo
Assay [1] has as its system barnyardgrass (Echinochloa crus-galli L.). The assay can be described thus: Test Example 1, foliar treatment in upland pots. Particulars: 20th to 22nd day after application, visual, read-out: Growth inhibition rate (%) Barnyardgrass. The source says:
(§1) Upland field soil was put into a 1/170,000 hectare pot, and seeds of various plants were sown. When the respective plants reached predetermined leaf stage ((1) barnyardgrass (Echinochloa crus-galli L.): 1.2 to 3.0 leaf stage, (2) crabgrass (Digitaria sanguinalis L.): 1.0 to 3.0 leaf stage, (3) green foxtail (Setaria viridis L.): 1.5 to 3.0 leaf stage, (4) redroot pigweed (Amaranthus retroflexus L.): cotyledon stage to 1.5 leaf stage, (5) prickly sida (Sida spinosa L.): cotyledon stage to 2.0 leaf stage, (6) velvetleaf (Abutilon theophrasti MEDIC.): cotyledon stage to 1.3 leaf stage, (7) rice (Oryza sativa L.): 1.2 to 2.5 leaf stage, (8) corn (Zea mays L.): 2.0 to 3.3 leaf stage, (9) soybean (Glycine max Merr.): primary leaf stage to 0.3 leaf stage) and wheat (Triticum spp.): 2.0 to 3.0 leaf stage, wettable powders or emulsifiable concentrates of the compounds of the present invention prepared in accordance with a conventional preparation method, were weighed so that the active ingredients became the prescribed amounts, and diluted with water in an amount corresponding to 500 liter per 1 hectare (containing 0.1 vol % of an agricultural spreader (“KUSARINOH”, manufactured by NIHON NOHYAKU CO., LTD.)). The spray solutions thus prepared were applied for foliar treatment by a small sprayer.
(§2) On the 20th to 22nd day after application, the state of growth of the respective plants was visually observed, and the herbicidal effect was evaluated by a growth inhibition rate (%) of 0 (equivalent to the non-treated area) to 100% (complete kill).

The subject of assay [2] is corn (Zea mays L.). The experiment in a line: Test Example 1, foliar treatment in upland pots. As to conditions: 20th to 22nd day after application, visual, read-out: Growth inhibition rate (%) Corn.
From the text: as §1, §2

In assay [3] the test system is crabgrass (Digitaria sanguinalis L.). The experiment in a line: Test Example 1, foliar treatment in upland pots. As to conditions: 20th to 22nd day after application, visual, read-out: Growth inhibition rate (%) Crabgrass.
From the text: as §1, §2

Assay [4] deals with green foxtail (Setaria viridis L.). The experiment in a line: Test Example 1, foliar treatment in upland pots. As to conditions: 20th to 22nd day after application, visual, read-out: Growth inhibition rate (%) Green foxtail.
From the text: as §1, §2

The subject of assay [5] is redroot pigweed (Amaranthus retroflexus L.). The experiment in a line: Test Example 1, foliar treatment in upland pots. Particulars: 20th to 22nd day after application, visual, read-out: Growth inhibition rate (%) Redroot pigweed.
From the text: as §1, §2

The test system of assay [6] is soybean (Glycine max Merr.). The assay can be described thus: Test Example 1, foliar treatment in upland pots. Particulars: 20th to 22nd day after application, visual, read-out: Growth inhibition rate (%) Soybean.
From the text: as §1, §2

The test system of assay [7] is velvetleaf (Abutilon theophrasti MEDIC.). The experiment in a line: Test Example 1, foliar treatment in upland pots. Particulars: 20th to 22nd day after application, visual, read-out: Growth inhibition rate (%) Velvetleaf.
From the text: as §1, §2

In assay [8] the test system is wheat (Triticum spp.). The experiment in a line: Test Example 1, foliar treatment in upland pots. As to conditions: 20th to 22nd day after application, visual, read-out: Growth inhibition rate (%) Wheat.
From the text: as §1, §2

Assay [9] has as its system barnyardgrass (Echinochloa crus-galli L.). The assay can be described thus: Test Example 2, soil application on the day after sowing. As to conditions: 21st to 22nd day after application, visual, read-out: Growth inhibition rate (%) Barnyardgrass. The source says: (§3) Upland field soil was put into a 1/170,000 hectare pot, and seeds of various plants (barnyardgrass (Echinochloa crus-galli L.), crabgrass (Digitaria sanquinalis L.), green foxtail (Setaria viridis L.), redroot pigweed (Amaranthus retroflexus L.), prickly sida (Sida spinosa L.), velvetleaf (Abutilon theophrasti MEDIC.), rice (Oryza sativa L.), corn (Zea mays L.), soybean (Glycine max Merr.)) and wheat (Triticum spp.) were sown. On the day after sowing, wettable powders or emulsifiable concentrates of the compounds of the present invention prepared in accordance with a conventional preparation method, were weighed so that the active ingredients became the prescribed amounts, and diluted with water in an amount corresponding to 500 liter per 1 hectare, followed by soil application with a small sprayer.
(§4) On the 21st to 22nd day after the application, the state of growth of the respective plants was visually observed, and the herbicidal effect was evaluated by a growth inhibition rate (%) of from 0 (equivalent to the non-treated area) to 100% (complete kill).

Assay [10] concerns corn (Zea mays L.). Described as above. Particulars: 21st to 22nd day after application, visual, read-out: Growth inhibition rate (%) Corn.
From the text: as §3, §4

Assay [11] relates to crabgrass (Digitaria sanquinalis L.). The description is as above. Particulars: 21st to 22nd day after application, visual, read-out: Growth inhibition rate (%) Crabgrass.
From the text: as §3, §4

Assay [12] has as its system green foxtail (Setaria viridis L.). The assay is described as above. As to conditions: 21st to 22nd day after application, visual, read-out: Growth inhibition rate (%) Green foxtail.
From the text: as §3, §4

Assay [13] relates to prickly sida (Sida spinosa L.). Described as above. As to conditions: 21st to 22nd day after application, visual, read-out: Growth inhibition rate (%) Prickly sida.
From the text: as §3, §4

Assay [14] relates to redroot pigweed (Amaranthus retroflexus L.). Described as above. Particulars: 21st to 22nd day after application, visual, read-out: Growth inhibition rate (%) Redroot pigweed.
From the text: as §3, §4

The subject of assay [15] is rice (Oryza sativa L.). The description is as above. As to conditions: 21st to 22nd day after application, visual, read-out: Growth inhibition rate (%) Rice.
From the text: as §3, §4

Assay [16] has as its system soybean (Glycine max Merr.). The assay is described as above. As to conditions: 21st to 22nd day after application, visual, read-out: Growth inhibition rate (%) Soybean.
From the text: as §3, §4

Assay [17] deals with velvetleaf (Abutilon theophrasti MEDIC.). The assay is described as above. Particulars: 21st to 22nd day after application, visual, read-out: Growth inhibition rate (%) Velvetleaf.
From the text: as §3, §4

For assay [18], the system named is wheat (Triticum spp.). The description is as above. As to conditions: 21st to 22nd day after application, visual, read-out: Growth inhibition rate (%) Wheat.
From the text: as §3, §4

In assay [19] the test system is Japanese bulrush (Scirpus juncoides). The experiment in a line: Test Example 3, paddy field pot, application to irrigated water. As to conditions: Schoenoplectiella juncoides, applied at 0.5 leaf stage, 13th to 17th day after application, read-out: Growth inhibition rate (%) Japanese bulrush. The source says:
(§5) Paddy field soil was put into a 1/1,000,000 hectare pot, and seeds of barnyardgrass (Echinochloa oryzicola vasing.) and Japanese bulrush (Scirpus juncoides) were sown and lightly covered with soil. Then, pot was left to stand in a greenhouse in a state irrigated to a water depth of from 0.5 to 1 cm, and next day or two days later, tubers of Japanese ribbon waparo (Sagittaria pygmaea) were planted. Then, the irrigated water depth was maintained to be from 3 to 4 cm, and when barnyardgrass and Japanese bulrush reached 0.5 leaf stage, and Japanese ribbon waparo reached primary leaf stage, a water diluted solution of a wettable powder or an emulsifiable concentrate of the compound of the present invention prepared in accordance with a conventional preparation method, was uniformly dropwise applied by a pipette so that the amount of active ingredients would be a prescribed amount. Further, paddy field soil was put into a 1/1,000,000 pot, followed by soil puddling to an irrigated water depth of from 3 to 4 cm. Next day, rice (Oryza sativa L.) (var.: Nihonbare) of two leaf stage was transplanted in a transplantation depth of 3 cm. On the 4th day after transplantation, the compound of the present invention was applied in the same manner as described above.
(§6) On the 13th to 17th day after application, the state of growth of barnyardgrass, Japanese bulrush and Japanese ribbon waparo was visually observed, and on the 20th to 23rd day after application, the state of growth of rice was visually observed, and the herbicidal effect was evaluated by a growth inhibition rate (%) of 0 (equivalent to the non-treated area) to 100% (complete kill).

For assay [20], the system named is Japanese ribbon waparo (Sagittaria pygmaea). Described as above. As to conditions: applied at primary leaf stage, 13th to 17th day after application, read-out: Growth inhibition rate (%) Japanese ribbon waparo.
From the text: as §5, §6

The subject of assay [21] is barnyardgrass (Echinochloa oryzicola vasing.). Described as above. Particulars: applied at 0.5 leaf stage, 13th to 17th day after application, read-out: Growth inhibition rate (%) barnyard grass.
From the text: as §5, §6

For assay [22], the system named is rice (Oryza sativa L.) (var.: Nihonbare). The experiment in a line: Test Example 3, paddy field pot, transplanted rice. Particulars: applied 4th day after transplantation, 20th to 23rd day after application, read-out: Growth inhibition rate (%) Rice.
From the text: as §5, §6

Assay [23] concerns prickly sida (Sida spinosa L.). The assay can be described thus: Test Example 1, foliar treatment in upland pots. Particulars: 20th to 22nd day after application, visual, read-out: Growth inhibition rate (%) Prickly sida.
From the text: as §1, §2

Assay [24] deals with rice (Oryza sativa L.). The experiment in a line: Test Example 1, foliar treatment in upland pots. As to conditions: 20th to 22nd day after application, visual, read-out: Growth inhibition rate (%) Rice.
From the text: as §1, §2

With `CCOCc1c(S(C)(=O)=O)ccc(C(=O)c2cnn(C)c2OC(C)OC(=O)OCC)c1C` (centres unmarked) [Compound No. 1-4, 1-(4-(3-(Ethoxymethyl)-2-methyl-4-(methylsulfonyl)benzoyl)-1-methyl-1H-pyrazol-5-yloxy)ethyl ethyl carbonate], the inhibition at 7 g/ha in [1] came to 95%; in the assay with corn (Zea mays L.) [2] it was 0%; in assay [3], 95%; in [4], 75%; in assay [5], 80%; in [6], 80%. The figures for the inhibition at 7 g/ha (in [7]; with wheat (Triticum spp.) [8]) were 80% and 0%, respectively. For the same compound, the inhibition at 250 g/ha in assay [9] was determined as 98%; with corn (Zea mays L.) [10], 0%; in [11] it was 80%; in assay [12], 80%; in assay [13] it was 90%; in assay [14], 98%. The inhibition at 250 g/ha is 60% in the assay with rice (Oryza sativa L.) [15], 40% in assay [16], 100% in assay [17] and 0% in the assay on wheat (Triticum spp.) [18]. Also, the inhibition at 63 g/ha in assay [19] was determined as 60%; in assay [20] it was 70%; in assay [21], 100%; in assay [22] it was 20%.
As for `COCCOc1c(S(C)(=O)=O)ccc(C(=O)c2c(C)nn(C(C)C)c2O)c1C` [Compound No. 8-2, (5-Hydroxy-1-isopropyl-3-methyl-1H-pyrazol-4-yl)(3-(2-methoxyethoxy)-2-methyl-4-(methylsulfonyl)phenyl)ketone], the inhibition at 7 g/ha in assay [1] was 20%; in the assay on corn (Zea mays L.) [2], 0%; in assay [3] it was 40%; in assay [4], 50%; in [23], 20%; in assay [5], 60%. Besides, the inhibition at 7 g/ha in the assay on rice (Oryza sativa L.) [24] is 0%; in assay [6] it was 10%; in assay [7] it was 60%; with wheat (Triticum spp.) [8] it was 0%. The inhibition at 250 g/ha came to 100% in assay [9]; 60% with corn (Zea mays L.) [10]; 100% in [11]; 100% in assay [12]; 60% in assay [13]; 100% in [14]. The inhibition at 250 g/ha with rice (Oryza sativa L.) [15] came out at 100%; in [17] it was 70%; with wheat (Triticum spp.) [18], 20%. For the same compound, the results for the inhibition at 63 g/ha in assay [19], in assay [21] and in assay [22] were 70%, 40% and 10%, respectively.

As usually defined, the inhibition is the drop in the measured response relative to a control, in per cent.

(Values after patent publication US8466089B2, “Pyrazole compounds, process for their production and herbicides containing them” (Ishihara Sangyo Kaisha, Ltd., priority 2008, dated 2013).)
